# Assay results: the supplement of paper PMC3770661
# Counter-ions that a name gives are not always drawn. ± gives the uncertainty stated by the source.
# System: HepG2 (L1.3 5'UTR promoter firefly luciferase reporter)
# Assay: L1 promoter activity (FLuc/RLuc) relative to DMSO vehicle control (% of control); higher = stronger L1 promoter activation
# Description: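 HepG2 cells in 96-well plates were cotransfected with pGL4.11-L1.3 5'UTR (firefly luciferase driven by the human L1.3 5'UTR promoter) and pGL4.74 (HSV-TK Renilla luciferase internal control), then treated with compound for 6 or 24 h. FLuc/RLuc ratio was normalised to the DMSO vehicle control (% of control); concentrations where RLuc fell below 50% of control were excluded (N.D.). Mean of at least two independent experiments in duplicate or quadruplicate.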
# [1] = concentration (uM unless unit written): 10, treatment time: 6 h
# [2] = concentration (uM unless unit written): 10, treatment time: 24 h
# [3] = concentration (uM unless unit written): 0.5, treatment time: 6 h
# [4] = concentration (uM unless unit written): 0.5, treatment time: 24 h
# [5] = concentration (uM unless unit written): 1, treatment time: 6 h
# [6] = concentration (uM unless unit written): 1, treatment time: 24 h
# [7] = concentration (uM unless unit written): 50, treatment time: 6 h
# [8] = concentration (uM unless unit written): 100, treatment time: 6 h
# [9] = concentration (uM unless unit written): 25, treatment time: 6 h
# [10] = concentration (uM unless unit written): 25, treatment time: 24 h
# [11] = concentration (uM unless unit written): 50, treatment time: 24 h
structure (smiles),measurement,setting,value
CO[C@@]12[C@H](COC(N)=O)C3=C(C(=O)C(C)=C(N)C3=O)N1C[C@@H]1N[C@@H]12 [Mitomycin C],L1 promoter activity,"concentration (uM unless unit written): 2.5, treatment time: 6 h",119 ± 25
same,L1 promoter activity,"concentration (uM unless unit written): 2.5, treatment time: 24 h",131 ± 10
same,L1 promoter activity,[1],96.4 ± 11
same,L1 promoter activity,[2],114 ± 25
c1ccc2c(c1)cc1ccc3cccc4ccc2c1c34 [Benzo(a)pyrene],L1 promoter activity,[3],102 ± 12
same,L1 promoter activity,[4],132 ± 17
same,L1 promoter activity,[5],117 ± 12
same,L1 promoter activity,[6],140 ± 22
same,L1 promoter activity,"concentration (uM unless unit written): 3, treatment time: 6 h",133 ± 18
same,L1 promoter activity,"concentration (uM unless unit written): 3, treatment time: 24 h",187 ± 37
Cc1cn([C@H]2C[C@H](N=[N+]=[N-])[C@@H](CO)O2)c(=O)[nH]c1=O [Azidothymidine],L1 promoter activity,[7],107 ± 25
same,L1 promoter activity,[8],106 ± 26
same,L1 promoter activity,"concentration (uM unless unit written): 200, treatment time: 6 h",111 ± 27
same,L1 promoter activity,"concentration (uM unless unit written): 200, treatment time: 24 h",104 ± 13
same,L1 promoter activity,"concentration (uM unless unit written): 1000, treatment time: 24 h",110 ± 7.2
CC(=O)[C@H]1CC[C@H]2[C@@H]3CCC4=CC(=O)CC[C@]4(C)[C@H]3CC[C@]12C [Progesterone],L1 promoter activity,[9],101 ± 7.1
same,L1 promoter activity,[10],81.7 ± 12
same,L1 promoter activity,[7],90.4 ± 15
same,L1 promoter activity,[11],67.8 ± 7.1
same,L1 promoter activity,[8],73.7 ± 6.7
C[C@H](CCC(=O)O)C[C@H](C)C[C@H](C)C(=O)/C=C(\O)[C@H](C)C[C@H](C)C/C=C/[C@@H](C)[C@@H](O)[C@@H](C)[C@@H](O)C[C@@H]1CC[C@@](C)([C@H]2CC[C@@](C)([C@@H](C)O)O2)O1 [Ionomycin],L1 promoter activity,"concentration (uM unless unit written): 5, treatment time: 6 h",77.1 ± 5
same,L1 promoter activity,"concentration (uM unless unit written): 5, treatment time: 24 h",79.5 ± 15
same,L1 promoter activity,[1],60 ± 14
same,L1 promoter activity,[2],58.1 ± 11
same,L1 promoter activity,"concentration (uM unless unit written): 20, treatment time: 6 h",60.5 ± 11
same,L1 promoter activity,"concentration (uM unless unit written): 20, treatment time: 24 h",36.9 ± 6.4
Clc1ccccc1CN1CCc2sccc2C1 [Ticlopidine],L1 promoter activity,[1],117 ± 5.9
same,L1 promoter activity,[2],124 ± 4.8
same,L1 promoter activity,[9],107 ± 9.2
same,L1 promoter activity,[10],104 ± 9.1
same,L1 promoter activity,[7],96.2 ± 12
same,L1 promoter activity,[11],113 ± 22
same,L1 promoter activity,[8],97.5 ± 13
same,L1 promoter activity,"concentration (uM unless unit written): 100, treatment time: 24 h",129 ± 11
C=C1[C@@H](C)[C@H]2[C@H](Cc3ccccc3)NC(=O)[C@]23[C@H](OC(C)=O)/C=C/[C@@](C)(O)C(=O)[C@@H](C)C/C=C/[C@H]3[C@@H]1O [Cytochalasin D],L1 promoter activity,"concentration (uM unless unit written): 0.1, treatment time: 6 h",110 ± 13
same,L1 promoter activity,"concentration (uM unless unit written): 0.1, treatment time: 24 h",106 ± 11
same,L1 promoter activity,[3],101 ± 7.4
same,L1 promoter activity,[4],128 ± 8.5
same,L1 promoter activity,[5],106 ± 12
same,L1 promoter activity,[6],167 ± 16
same,L1 promoter activity,[1],98.6 ± 13
same,L1 promoter activity,[2],295 ± 20
NC(=O)c1ccccc1O [Salicylamide],L1 promoter activity,"concentration (uM unless unit written): 1250, treatment time: 6 h",146 ± 22
same,L1 promoter activity,"concentration (uM unless unit written): 1250, treatment time: 24 h",175 ± 16
same,L1 promoter activity,"concentration (uM unless unit written): 2500, treatment time: 6 h",139 ± 9.1
same,L1 promoter activity,"concentration (uM unless unit written): 5000, treatment time: 6 h",151 ± 25
Cc1c2oc3c(C)ccc(C(=O)N[C@@H]4C(=O)N[C@H](C(C)C)C(=O)N5CCC[C@H]5C(=O)N(C)CC(=O)N(C)[C@@H](C(C)C)C(=O)O[C@@H]4C)c3nc-2c(C(=O)N[C@@H]2C(=O)N[C@H](C(C)C)C(=O)N3CCC[C@H]3C(=O)N(C)CC(=O)N(C)[C@@H](C(C)C)C(=O)O[C@@H]2C)c(N)c1=O [Actinomycin D],L1 promoter activity,"concentration (uM unless unit written): 0.0025, treatment time: 6 h",132 ± 34
same,L1 promoter activity,"concentration (uM unless unit written): 0.005, treatment time: 6 h",112 ± 12
same,L1 promoter activity,"concentration (uM unless unit written): 0.01, treatment time: 6 h",110 ± 36
same,L1 promoter activity,"concentration (uM unless unit written): 0.01, treatment time: 24 h",144 ± 19
CN(Cc1cc(Br)cc(Br)c1N)C1CCCCC1 [Bromhexine hydrochloride],L1 promoter activity,"concentration (uM unless unit written): 62.5, treatment time: 6 h",108 ± 14
same,L1 promoter activity,"concentration (uM unless unit written): 62.5, treatment time: 24 h",102 ± 7.2
same,L1 promoter activity,"concentration (uM unless unit written): 125, treatment time: 6 h",97.8 ± 12
same,L1 promoter activity,"concentration (uM unless unit written): 125, treatment time: 24 h",98.7 ± 12
CC(=O)Nc1ccc(O)cc1 [Acetaminophen],L1 promoter activity,"concentration (uM unless unit written): 10000, treatment time: 6 h",116 ± 12
same,L1 promoter activity,"concentration (uM unless unit written): 10000, treatment time: 24 h",131 ± 18
same,L1 promoter activity,"concentration (uM unless unit written): 20000, treatment time: 6 h",115 ± 9.1
CS(=O)(=O)OCCCCOS(C)(=O)=O [Busulfan],L1 promoter activity,[8],111 ± 33
same,L1 promoter activity,"concentration (uM unless unit written): 250, treatment time: 6 h",119 ± 29
same,L1 promoter activity,"concentration (uM unless unit written): 500, treatment time: 6 h",131 ± 39
same,L1 promoter activity,"concentration (uM unless unit written): 500, treatment time: 24 h",122 ± 39
